Results as given in the NIST ThermoML archive (doi:10.1016/j.jct.2013.01.006).

Conditions: Liquid, Vibrating tube method

FCC(F)(F)F [1,1,1,2-tetrafluoroethane]
Conditions	mass density [kg/m3]
283.52 K, 1010 kPa	1262.83
283.53 K, 5000 kPa	1279.7
283.54 K, 10000 kPa	1298.2
283.54 K, 20000 kPa	1329.16
283.54 K, 39990 kPa	1376.78
283.54 K, 60010 kPa	1413.66
283.54 K, 80020 kPa	1444.29
303.26 K, 1000 kPa	1188.74
303.27 K, 5000 kPa	1212.6
303.28 K, 10000 kPa	1237.15
303.29 K, 19980 kPa	1275.91
303.29 K, 40010 kPa	1332.33
303.3 K, 60000 kPa	1374.15
303.3 K, 79980 kPa	1408.2
323.07 K, 1280 kPa	1102.44
323.08 K, 5000 kPa	1136.68
323.08 K, 10000 kPa	1170.98
323.09 K, 20000 kPa	1220.67
323.11 K, 60000 kPa	1335.02
323.11 K, 80000 kPa	1372.84
323.12 K, 40000 kPa	1287.6
343.02 K, 10000 kPa	1097
343.02 K, 20000 kPa	1162.16
343.02 K, 39990 kPa	1241.93
343.02 K, 60010 kPa	1295.73
343.03 K, 4990 kPa	1045.24
343.03 K, 80010 kPa	1337.58
343.05 K, 2090 kPa	997.14
362.95 K, 5000 kPa	921.91
362.95 K, 10000 kPa	1012.79
362.96 K, 20000 kPa	1101.23
362.97 K, 40000 kPa	1196.59
362.98 K, 60000 kPa	1257.2
362.99 K, 80000 kPa	1302.95

C=C(F)C(F)(F)F [2,3,3,3-tetrafluoro-1-propene]
Conditions	mass density [kg/m3]
283.5 K, 3000 kPa	1155.63
283.5 K, 5000 kPa	1165.27
283.51 K, 1000 kPa	1145.11
283.51 K, 10000 kPa	1186.43
283.51 K, 15000 kPa	1204.63
283.52 K, 20000 kPa	1220.62
283.52 K, 25000 kPa	1235
283.53 K, 30000 kPa	1248.1
283.53 K, 40000 kPa	1271.31
283.53 K, 50000 kPa	1291.52
283.53 K, 60000 kPa	1309.52
283.53 K, 69990 kPa	1325.92
283.54 K, 79990 kPa	1340.69
283.54 K, 89990 kPa	1354.31
283.54 K, 99990 kPa	1367.01
293.42 K, 100000 kPa	1352.4
293.43 K, 1000 kPa	1111.44
293.43 K, 3000 kPa	1123.79
293.43 K, 5000 kPa	1134.97
293.43 K, 80000 kPa	1324.88
293.43 K, 89990 kPa	1339.25
293.44 K, 10000 kPa	1159.05
293.44 K, 15000 kPa	1179.37
293.44 K, 20000 kPa	1196.95
293.44 K, 70000 kPa	1309.56
293.45 K, 25000 kPa	1212.64
293.45 K, 30000 kPa	1226.8
293.45 K, 40000 kPa	1251.77
293.45 K, 50000 kPa	1273.28
293.45 K, 60000 kPa	1292.28
303.3 K, 1000 kPa	1077.2
303.3 K, 3000 kPa	1092.22
303.3 K, 5000 kPa	1105.38
303.3 K, 10000 kPa	1133.08
303.3 K, 20000 kPa	1175.21
303.3 K, 25000 kPa	1192.3
303.3 K, 30000 kPa	1207.61
303.3 K, 40000 kPa	1234.24
303.3 K, 50000 kPa	1257.07
303.3 K, 60000 kPa	1277.12
303.31 K, 15000 kPa	1155.81
303.31 K, 69990 kPa	1295.36
303.31 K, 80000 kPa	1311.51
303.31 K, 90000 kPa	1326.38
303.31 K, 99990 kPa	1340.07
313.3 K, 3000 kPa	1054.12
313.3 K, 5000 kPa	1070.05
313.3 K, 10000 kPa	1102.25
313.3 K, 15000 kPa	1127.81
313.31 K, 20000 kPa	1149.23
313.31 K, 25000 kPa	1167.84
313.31 K, 30000 kPa	1184.38
313.31 K, 79990 kPa	1294.04
313.31 K, 100000 kPa	1323.74
313.32 K, 40000 kPa	1212.87
313.32 K, 50000 kPa	1237.08
313.32 K, 60000 kPa	1258.24
313.32 K, 70000 kPa	1277.17
313.32 K, 90000 kPa	1309.49
323.16 K, 30000 kPa	1163.21
323.16 K, 80000 kPa	1279.1
323.16 K, 90000 kPa	1295.16
323.16 K, 100000 kPa	1309.92
323.17 K, 3000 kPa	1014.55
323.17 K, 5000 kPa	1034.38
323.17 K, 10000 kPa	1072.33
323.17 K, 15000 kPa	1101.29
323.17 K, 20000 kPa	1125.01
323.17 K, 25000 kPa	1145.33
323.17 K, 40000 kPa	1193.69
323.17 K, 50000 kPa	1219.3
323.17 K, 60000 kPa	1241.51
323.17 K, 69990 kPa	1261.48
333.08 K, 3000 kPa	970.09
333.08 K, 5000 kPa	995.64
333.08 K, 10000 kPa	1041.18
333.08 K, 15000 kPa	1074.07
333.08 K, 20000 kPa	1100.37
333.08 K, 25000 kPa	1122.55
333.08 K, 30000 kPa	1141.81
333.08 K, 40000 kPa	1174.38
333.08 K, 50000 kPa	1201.52
333.08 K, 60000 kPa	1224.88
333.08 K, 70000 kPa	1245.82
333.08 K, 80000 kPa	1264.16
333.08 K, 90000 kPa	1280.84
333.08 K, 99990 kPa	1296.14
343.03 K, 25000 kPa	1099.43
343.04 K, 30000 kPa	1120.26
343.04 K, 40000 kPa	1155.06
343.05 K, 50000 kPa	1183.7
343.05 K, 60000 kPa	1208.19
343.05 K, 70000 kPa	1230.04
343.05 K, 80000 kPa	1249.14
343.05 K, 90000 kPa	1266.4
343.06 K, 15000 kPa	1045.88
343.06 K, 20000 kPa	1075.15
343.06 K, 100000 kPa	1282.22
343.07 K, 3000 kPa	917.18
343.07 K, 5000 kPa	952.33
343.07 K, 10000 kPa	1008.02
353.02 K, 3000 kPa	849.05
353.02 K, 99990 kPa	1268.7
353.03 K, 5000 kPa	902.77
353.03 K, 10000 kPa	973.22
353.03 K, 15000 kPa	1016.73
353.03 K, 20000 kPa	1049.45
353.03 K, 25000 kPa	1075.98
353.03 K, 30000 kPa	1098.53
353.03 K, 40000 kPa	1135.71
353.03 K, 50000 kPa	1166.05
353.03 K, 60000 kPa	1191.81
353.03 K, 69990 kPa	1214.55
353.03 K, 79990 kPa	1234.41
353.03 K, 89990 kPa	1252.33
362.96 K, 5000 kPa	843.74
362.96 K, 10000 kPa	936.17
362.96 K, 15000 kPa	986.89
362.96 K, 20000 kPa	1023.49
362.96 K, 25000 kPa	1052.55
362.96 K, 30000 kPa	1076.97
362.96 K, 40000 kPa	1116.69
362.96 K, 50000 kPa	1148.71
362.96 K, 60000 kPa	1175.67
362.96 K, 70000 kPa	1199.47
362.96 K, 80000 kPa	1220.08
362.96 K, 89990 kPa	1238.55
362.96 K, 100000 kPa	1255.48
